The nature of data set [1]: Compatibility test of API and auxiliary materials: appearance. In kind it is physicochemical. The settings on record: opened. An excerpt:
The experimental steps are as follows:
1. Taking out the sample according to the sampling time point set in the raw material and auxiliary material compatibility scheme (see Table 1).
2. Recording the appearance of the sample taken out. Appearance abnormalities include: (1) caking, (2) liquefaction, (3) discoloration.
(§1) The commonly used auxiliary materials for oral solid preparations are selected to mix with TJ0113 raw material in different proportions, placed under different conditions, and taken out at different time points respectively to judge the compatibility of the raw and auxiliary materials by using appearance, hygroscopic weight gain, content and relevant substances as indicators. According to the auxiliary material manual, the auxiliary materials used are commonly used auxiliary materials for oral solid preparations, and have been included in the current edition of the Chinese Pharmacopoeia, each auxiliary material has a stable nature. In order to objectively evaluate the compatibility of raw material and auxiliary materials used, the compatibility test was conducted on the raw material and each auxiliary material.
The ratio of the raw and auxiliary materials is set according to the “Basic Technical Guidance Principles for Research on Chemical Drug Preparations” and the preparation specifications, the auxiliary materials with a larger amount (such as lactose, microcrystalline cellulose) are mixed according to the ratio of main drug:diluent=1:5; the auxiliary materials with a moderate amount (such as croscarmellose sodium) are mixed according to the ratio of main drug:disintegrant=1:1; the auxiliary materials with a smaller amount (such as magnesium stearate) are mixed according to the ratio of main drug:lubricant=10:1. The manufacturer information and the ratio of raw and auxiliary materials for the compatibility experiment are shown in Table 1 below: […]

Data set [2] in a line: Compatibility test of API and auxiliary materials: hygroscopic weight gain. In kind it is physicochemical. The settings on record: opened.
Excerpt: 3. Detecting the hygroscopic weight gain of the sample.
as §1
The ratio of the raw and auxiliary materials is set according to the “Basic Technical Guidance Principles for Research on Chemical Drug Preparations” and the preparation specifications, the auxiliary materials with a larger amount (such as lactose, microcrystalline cellulose) are mixed according to the ratio of main drug:diluent=1:5; the auxiliary materials with a moderate amount (such as croscarmellose sodium) are mixed according to the ratio of main drug:disintegrant=1:1; the auxiliary materials with a smaller amount (such as magnesium stearate) are mixed according to the ratio of main drug:lubricant=10:1. The manufacturer information and the ratio of raw and auxiliary materials for the compatibility experiment are shown in Table 1 below:
Placing the samples under experimental conditions of high temperature (60° C.), high humidity (92.5% RH), acceleration (40° C./75% RH) and illumination (visible light 5500 Lux±500 Lux, near ultraviolet light 85 μw/cm2), […] Submitting the samples for relevant indicator testing (test items include appearance, hygroscopic weight gain, content and relevant substances), and comparing the test results with the control samples (raw material).

As to `O=C(O)C[S+]([O-])c1cc(NS(=O)(=O)c2ccc(Br)cc2)c2ccccc2c1O` (stereo not drawn) [API], the Appearance entry was “gray powder” in data set [1] (40° C./75% RH, 30 d); “gray powder” in data set [1] (92.5% RH, 30 d); “turned into red, and their lower layers did not change color” in data set [1] (illumination, 30 days). Also, the Hygroscopic weight gain is on record as −3.6 in data set [2] (40° C./75% RH, 10 d); −4.2 in data set [2] (40° C./75% RH, 30 d); 5.5 in data set [2] (92.5% RH, 10 d).

The record behind these values is patent publication US20260216108A1, “PHARMACEUTICAL COMPOSITION CONTAINING A MITOPHAGY INDUCER” (HANGZHOU PHECDAMED CO., LTD., priority 2023, published 2026).
